This is an account of results in patent US11439627B2, “Pharmaceutical composition for the treatment of autism” (Stalicla S.A., priority 2017, dated 2022).

In data set [1] the test system is patients with autism spectrum disorder classified as Phenotype 1. In words: ADI-r scores of ASD phenotype 1 patients under treatment. Particulars: after four weeks of ibudilast 0.6 mg/kg daily total, TID. The class given is in vivo, human. Here is the method: A pharmaceutical composition comprising ibudilast and bumetanide was administered to patients with a diagnosis of autism spectrum disorder as defined in the DSM-5, or PDD-NOS or Asperger syndrome as defined in the DSM-IV. Eligibility criteria: male sex, age 5-50, no current chronic illness, no history of active seizures within 1 year, normal liver, renal and thyroid function. Concomitant medications were permitted if doses were stable for at least 60 days prior to the initiation of the challenge test. Patients with no syndromic or identified genetic etiology. […] Description: Four of the patients characterized as above were administered ibudilast. The four subjects had varying levels of functioning ranging from mild to severe, and varying different levels of verbal and intellectual abilities. IQ values ranged from 61 to 86. All were males. Four patients were treated with ibudilast at a daily total dosage of 0.6 mg/kg, TID. A new treatment regimen was introduced, this time ibudilast at a daily total dosage of 0.6 mg/kg, TID, was administered in conjunction with bumetanide at a daily total dosage of 0.08 mg/kg, BID (with a maximum upper daily dose of […]).

For data set [2] the following is noted: single dose of 10 mg, healthy adults, in 72 hours; cited from earlier work.

On to `CC(C)C(=O)c1c(C(C)C)nn2ccccc12` [ibudilast], for which the “ADI-r RI” value in data set [1] (Patient 1, baseline 7) is given as 6; in data set [1] (Patient 2, baseline 5) it was 5; in data set [1] (Patient 3, baseline 7) it was 5; in data set [1] (Patient 4, baseline 7), 7. The “ADI-r C” value in data set [1] (Patient 1, baseline 24) was found to be 20; in data set [1] (Patient 2, baseline 19) it was 15; in data set [1] (Patient 3, baseline 18) it was 14; in data set [1] (Patient 4, baseline 17), 14. The “ADI-r SI” value is reported as 21 in data set [1] (Patient 1, baseline 28); 16 in data set [1] (Patient 2, baseline 20); 12 in data set [1] (Patient 3, baseline 14); 22 in data set [1] (Patient 4, baseline 27). Also, the “dose excreted as metabolites in urine” value in data set [2] is recorded as “about 60%”.
